Each molecule was assayed on reaginic antibody induced passive cutaneous anaphylaxis (PCA) reaction (assay: reaginic antibody induced passive cutaneous anaphylaxis (PCA) reaction in rats). Conditions: male rat; anti-Egg Albumin intradermal; two doses of test compound (75 mg./kg.) intraperitoneally, 90 and 10 minutes prior to intravenous Egg Albumin/Evans Blue challenge; scored thirty minutes after.
Format: in vivo
Procedure: The compounds of formula I are anti-allergics which inhibit the effects of certain antigen-antibody reactions and in particular inhibit the release of mediators such as histamine. The anti-allergy activity of these compounds is determined by the reaginic antibody induced passive cutaneous anaphylaxis (PCA) reaction in rats. (See Bach, Immediate Hypersensitivity: Laboratory Models and Experimental Findings, Ann. Rep. Med. Chem., 7: 238-248 (1972), for a discussion of the predictability of clinical efficacy of compounds active in the PCA).
The experimental procedure employed is as follows. A male rat is given an intradermal injection on one flank of 0.05 ml. of antibody (reaginic) (anti-Egg Albumin). 24 hours later two doses of test compound (75 mg./kg.) are administered intraperitoneally, one dose ninety minutes and the other ten minutes prior to a 0.5 ml. intravenous injection of an antigen challenge (equal portions of Egg Albumin 4 mg./ml. and 1% Evans Blue Dye). […] A score is obtained according to the formula
Total score = (diameter) × (intensity)
wherein the intensity of the spot is rated on a scale of 1 to 3 as follows
and the diameter is determined by averaging in millimeters two measured diameters of the reaction.
The percent inhibition is calculated by comparing the scores obtained in both compound and non-compound treated animals according to a pre-determined standard curve relationship between score and the quantity of antibody used to elicit the reaction.

| Structure (SMILES) | Percent Inhibition [%] |
| --- | --- |
| O=C1c2cccc3cccc(c23)C(=O)N1CCO [2-(2-Hydroxyethyl)-1H-benz[de]isoquinoline-1,3(2H)-dione] | 36 |
| O=C1c2cccc3cccc(c23)C(=O)N1CCCO [2-(3-Hydroxypropyl)-1H-benz[de]isoquinoline-1,3(2H)-dione] | 52 |
| O=C1c2cccc3cccc(c23)C(=O)N1CCCCO [2-(4-Hydroxybutyl)-1H-benz[de]isoquinoline-1,3(2H)-dione] | 53 |
| O=C1c2cccc3cccc(c23)C(=O)N1CCCCCO [2-(5-Hydroxypentyl)-1H-benz[de]isoquinoline-1,3(2H)-dione] | 8 |
| O=C1c2cccc3cccc(c23)C(=O)N1CO [2-(Hydroxymethyl)-1H-benz[de]isoquinoline-1,3(2H)-dione] | 50 |

Source: US4006238A, “Use of 2-(hydroxyalkyl)-1H-benz[de]isoquinoline-1,3(2H)-diones as anti-allergy agents” (E. R. Squibb & Sons, Inc., priority 1975, dated 1977)
